Test results published in ChEMBL document CHEMBL5050840, “3-(1-oxoisoindolin-2-yl)piperidine-2,6-dione derivatives and uses thereof” (2021).
The source made the active and inactive calls. No cut-off for these calls is given here.

How the values were obtained:
GripTite 293 MSR = assay: Induction of IKZF2 degradation in human GripTite 293 MSR cells at 10 uM assessed as reduction in IKZF2 level measured by PathHunter assay relative to control; format: cell-based; parameters: scale not given: the % may be the effect or the level left
PBMC [1] = assay: Effect of compound on human PBMCs at 10 uM assessed as decrease in CD4+ T cells proliferation; format: functional, cell-based
PBMC [2] = assay: Effect of compound on human PBMCs at 10 uM assessed as fold increase in IL-2 producing cells; format: functional, cell-based
[3] = Induction of IKZF2 degradation in human GripTite 293 MSR cells assessed as reduction in IKZF2 level measured by PathHunter assay; format: cell-based

Row | Structure (SMILES) | EC50 [3] [nM] | other results
1 | CN1CC=C(c2ccc3c(c2)CN(C2CCC(=O)NC2=O)C3=O)CC1 (stereo not given) |  | Activity (GripTite 293 MSR): 35%
2 | O=C1CCC(N2Cc3cc(C4CCN(Cc5ccccc5)CC4)ccc3C2=O)C(=O)N1 (stereo not given) |  | Activity (PBMC [1]): Active; Activity (PBMC [2]): Active
3 | O=C1CCC(N2Cc3cc(C4CCN([C@@H](CO)c5ccccc5)CC4)ccc3C2=O)C(=O)N1 (single isomer, unassigned) | 590 | 
4 | C[C@H](c1ccccc1)N1CCC(c2ccc3c(c2)CN(C2CCC(=O)NC2=O)C3=O)CC1 (single isomer, unassigned) | 17 | 
5 | O=C1CCC(N2Cc3cc(C4CCN(C(CO)c5ccccc5)CC4)ccc3C2=O)C(=O)N1 (single isomer, unassigned) | 850 | 

More lines, in order of falling EC50 [3], values ahead:

Row | EC50 [3] [nM] | Structure (SMILES) | other results
6 | 210 | O=C1CCC(N2Cc3cc(C4CCCN(Cc5ccccc5)CC4)ccc3C2=O)C(=O)N1 (single isomer, unassigned; form 2) | 
7 | 170 | O=C1CCC(N2Cc3cc(C4CCCN(Cc5ccccc5)CC4)ccc3C2=O)C(=O)N1 (single isomer, unassigned; form 1) | 
8 | 9 | CC(c1ccccc1)N1CCC(c2ccc3c(c2)CN(C2CCC(=O)NC2=O)C3=O)CC1 (single isomer, unassigned) | 
9 | 7 | CC(c1ccccc1)N1CCC(c2ccc3c(c2)CN(C2CCC(=O)NC2=O)C3=O)CC1 (racemic) | 
